Test results: patent publication US11382956B2, “Amylin analogues” (Zealand Pharma A/S, priority 2016, dated 2022)
Numbered stars: 1 amine (or outer) side, 2 acyl side, 3 side chain; on linkers, the order of the positions; unused ones are H or OH. Bridge positions count the residues as written; N and C are the ends. Square brackets hold non-standard residues; d marks the D form. Peptide text beside a SMILES is read from it. * marks the point of attachment. C20 diacid = O=C(O)CCCCCCCCCCCCCCCCCCC(=O)*; γGlu = O=C(O)[C@H](CCC(=O)[*:2])N[*:1]; Hyp = O=C(O)[C@@H]1C[C@@H](O)CN1; NMeI = CC[C@H](C)[C@H](NC)C(=O)O; Aad = N[C@@H](CCCC(=O)O)C(=O)O; Orn = NCCC[C@H](N)C(=O)O; Dab = NCC[C@H](N)C(=O)O; Dap = NC[C@H](N)C(=O)O; Sar = CNCC(=O)O

Columns and labels:
[1] = target: T1, recombinant human calcitonin receptor (hCT-R) (Homo sapiens, UniProt P30988); test: hCT-R cAMP assay (AlphaScreen) in 1321N1 cells; format: cell-based; settings: cAMP formation, 45 min stimulation
T1 construct: host or cells: human astrocytoma cell line 1321N1
T1 sequence (P30988 25-474): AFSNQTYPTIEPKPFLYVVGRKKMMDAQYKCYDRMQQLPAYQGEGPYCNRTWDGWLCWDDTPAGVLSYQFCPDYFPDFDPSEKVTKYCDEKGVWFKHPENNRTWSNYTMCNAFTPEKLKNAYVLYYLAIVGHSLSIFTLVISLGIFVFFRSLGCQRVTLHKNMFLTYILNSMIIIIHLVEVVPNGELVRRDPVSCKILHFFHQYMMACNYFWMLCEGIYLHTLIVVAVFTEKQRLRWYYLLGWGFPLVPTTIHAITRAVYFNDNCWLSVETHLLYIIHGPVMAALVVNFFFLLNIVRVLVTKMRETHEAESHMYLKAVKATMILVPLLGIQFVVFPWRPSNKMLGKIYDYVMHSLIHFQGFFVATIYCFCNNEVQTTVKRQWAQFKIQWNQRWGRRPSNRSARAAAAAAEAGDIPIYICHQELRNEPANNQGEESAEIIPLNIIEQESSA
Summary of the method: (§1)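 EC50 values come from curve fits over at least 7 peptide concentrations, with cAMP read by AlphaScreen competition after 1 h in the dark. Cells were 1321N1 lines carrying human calcitonin receptor, with RAMP3 co-expressed for AMY3, treated 45 min at room temperature in the presence of IBMX.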

[2] = target: T2, recombinant human amylin 3 receptor (hAMYR3) (Homo sapiens, UniProt O60896+P30988); test: hAMYR3 cAMP assay (AlphaScreen) in 1321N1 cells; format: cell-based; settings: cAMP formation, 45 min stimulation
T2 construct: host or cells: human astrocytoma cell line 1321N1
T2 sequence (P30988 25-474): T1 sequence (P30988 25-474)
T2 sequence (O60896 24-148 partner): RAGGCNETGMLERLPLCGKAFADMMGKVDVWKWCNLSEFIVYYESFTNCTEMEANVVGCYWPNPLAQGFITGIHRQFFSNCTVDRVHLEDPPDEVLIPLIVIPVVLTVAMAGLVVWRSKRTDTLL
Summary of the method: as §1

Row | EC50 [1] [nM] | EC50 [2] [nM] | SMILES
1 | 0.006 | 0.003 | CC[C@H](C)[C@@H](C(=O)N[C@@H](CC(C)C)C(=O)N[C@@H](CO)C(=O)N[C@@H](CO)C(=O)N[C@H](C(=O)N[C@@H](CCC(=O)O)C(=O)N[C@H](C(=O)NCC(=O)N[C@@H](CO)C(=O)N[C@@H](CC(N)=O)C(=O)N[C@H](C(=O)N1C[C@H](O)C[C@H]1C(N)=O)[C@@H](C)O)[C@@H](C)O)[C@@H](C)O)N(C)C(=O)[C@H](C)NC(=O)CN(C)C(=O)[C@H](Cc1ccccc1)NC(=O)[C@H](CO)NC(=O)[C@H](CO)NC(=O)[C@H](CCCNC(=N)N)NC(=O)[C@H](CCC(N)=O)NC(=O)[C@H](CC(C)C)NC(=O)[C@H](Cc1ccccc1)NC(=O)[C@H](CC(=O)O)NC(=O)[C@H](C)NC(=O)[C@H](CC(C)C)NC(=O)[C@H](CCCNC(=N)N)NC(=O)[C@H](CCC(N)=O)NC(=O)[C@@H](NC(=O)[C@H](C)NC(=O)[C@@H]1CCCCNC(=O)C[C@H](NC(=O)[C@H](CCCNC(=N)N)NC(=O)CC[C@H](NC(=O)CCCCCCCCCCCCCCCCCCC(=O)O)C(=O)O)C(=O)NCC(=O)N[C@@H]([C@@H](C)O)C(=O)N[C@@H](C)C(=O)N[C@@H]([C@@H](C)O)C(=O)N1)[C@@H](C)O [Compound 42, [19CD]-isoGlu-RD()GTATK()ATQRLADFLQRSSF-Gly(Me)-A-Ile(Me)-LSSTETGSNT-Hyp-NH2] ({C20 diacid-γGlu}-RDGTATKATQRLADFLQRSSF[Sar]A[NMeI]LSSTETGSNT[Hyp]-NH2; lactam 2-7)
2 | 299 | 279 | CC[C@H](C)[C@@H](C(=O)N[C@@H](CC(C)C)C(=O)N[C@@H](CO)C(=O)N[C@@H](CO)C(=O)N[C@H](C(=O)N[C@@H](CCC(=O)O)C(=O)N[C@H](C(=O)NCC(=O)N[C@@H](CO)C(=O)N[C@@H](CC(N)=O)C(=O)N[C@H](C(=O)N1C[C@H](O)C[C@H]1C(N)=O)[C@@H](C)O)C(C)C)[C@@H](C)O)N(C)C(=O)[C@H](C)NC(=O)CN(C)C(=O)[C@H](Cc1ccccc1)NC(=O)[C@H](CO)NC(=O)[C@H](CO)NC(=O)[C@H](CCCNC(=N)N)NC(=O)[C@H](CCC(N)=O)NC(=O)[C@H](CC(C)C)NC(=O)[C@H](Cc1ccccc1)NC(=O)[C@H](Cc1c[nH]cn1)NC(=O)[C@H](C)NC(=O)[C@H](CC(C)C)NC(=O)[C@H](CCCNC(=N)N)NC(=O)[C@H](CCC(=O)O)NC(=O)[C@@H](NC(=O)[C@H](C)NC(=O)[C@@H]1CC(=O)NC[C@H](NC(=O)[C@H](CCCNC(=N)N)NC(=O)CC[C@H](NC(=O)CCCCCCCCCCCCCCCCCCC(=O)O)C(=O)O)C(=O)NCC(=O)N[C@@H]([C@@H](C)O)C(=O)N[C@@H](C)C(=O)N[C@@H]([C@@H](C)O)C(=O)N1)[C@@H](C)O [Compound 45, [19CD]-isoGlu-R-Dap()-GTATD()ATERLAHFLQRSSF-Gly(Me)-A-Ile(Me)-LSSTEVGSNT-Hyp-NH2] ({C20 diacid-γGlu}-R[Dap]GTATDATERLAHFLQRSSF[Sar]A[NMeI]LSSTEVGSNT[Hyp]-NH2; lactam 2-7)
3 | 7.5 | 5.5 | CC[C@H](C)[C@@H](C(=O)N[C@@H](CC(C)C)C(=O)N[C@@H](CO)C(=O)N[C@@H](CO)C(=O)N[C@H](C(=O)N[C@@H](CCC(=O)O)C(=O)N[C@H](C(=O)NCC(=O)N[C@@H](CO)C(=O)N[C@@H](CC(N)=O)C(=O)N[C@H](C(=O)N1C[C@H](O)C[C@H]1C(N)=O)[C@@H](C)O)C(C)C)[C@@H](C)O)N(C)C(=O)[C@H](C)NC(=O)CN(C)C(=O)[C@H](Cc1ccccc1)NC(=O)[C@H](CO)NC(=O)[C@H](CO)NC(=O)[C@H](CCCNC(=N)N)NC(=O)[C@H](CCC(N)=O)NC(=O)[C@H](CC(C)C)NC(=O)[C@H](Cc1ccccc1)NC(=O)[C@H](Cc1c[nH]cn1)NC(=O)[C@H](C)NC(=O)[C@H](CC(C)C)NC(=O)[C@H](CCCNC(=N)N)NC(=O)[C@H](CCC(=O)O)NC(=O)[C@@H](NC(=O)[C@H](C)NC(=O)[C@@H]1CC(=O)NCC[C@H](NC(=O)[C@H](CCCNC(=N)N)NC(=O)CC[C@H](NC(=O)CCCCCCCCCCCCCCCCCCC(=O)O)C(=O)O)C(=O)NCC(=O)N[C@@H]([C@@H](C)O)C(=O)N[C@@H](C)C(=O)N[C@@H]([C@@H](C)O)C(=O)N1)[C@@H](C)O [Compound 46, [19CD]-isoGlu-R-Dab()-GTATD()ATERLAHFLQRSSF-Gly(Me)-A-Ile(Me)-LSSTEVGSNT-Hyp-NH2] ({C20 diacid-γGlu}-R[Dab]GTATDATERLAHFLQRSSF[Sar]A[NMeI]LSSTEVGSNT[Hyp]-NH2; lactam 2-7)
4 | 10.8 | 7.7 | CC[C@H](C)[C@@H](C(=O)N[C@@H](CC(C)C)C(=O)N[C@@H](CO)C(=O)N[C@@H](CO)C(=O)N[C@H](C(=O)N[C@@H](CCC(=O)O)C(=O)N[C@H](C(=O)NCC(=O)N[C@@H](CO)C(=O)N[C@@H](CC(N)=O)C(=O)N[C@H](C(=O)N1C[C@H](O)C[C@H]1C(N)=O)[C@@H](C)O)C(C)C)[C@@H](C)O)N(C)C(=O)[C@H](C)NC(=O)CN(C)C(=O)[C@H](Cc1ccccc1)NC(=O)[C@H](CO)NC(=O)[C@H](CO)NC(=O)[C@H](CCCNC(=N)N)NC(=O)[C@H](CCC(N)=O)NC(=O)[C@H](CC(C)C)NC(=O)[C@H](Cc1ccccc1)NC(=O)[C@H](Cc1c[nH]cn1)NC(=O)[C@H](C)NC(=O)[C@H](CC(C)C)NC(=O)[C@H](CCCNC(=N)N)NC(=O)[C@H](CCC(=O)O)NC(=O)[C@@H](NC(=O)[C@H](C)NC(=O)[C@@H]1CC(=O)NCCC[C@H](NC(=O)[C@H](CCCNC(=N)N)NC(=O)CC[C@H](NC(=O)CCCCCCCCCCCCCCCCCCC(=O)O)C(=O)O)C(=O)NCC(=O)N[C@@H]([C@@H](C)O)C(=O)N[C@@H](C)C(=O)N[C@@H]([C@@H](C)O)C(=O)N1)[C@@H](C)O [Compound 47, [19CD]-isoGlu-R-Orn()-GTATD()ATERLAHFLQRSSF-Gly(Me)-A-Ile(Me)-LSSTEVGSNT-Hyp-NH2] ({C20 diacid-γGlu}-R[Orn]GTATDATERLAHFLQRSSF[Sar]A[NMeI]LSSTEVGSNT[Hyp]-NH2; lactam 2-7)
5 | 3.3 | 1.5 | CC[C@H](C)[C@@H](C(=O)N[C@@H](CC(C)C)C(=O)N[C@@H](CO)C(=O)N[C@@H](CO)C(=O)N[C@H](C(=O)N[C@@H](CCC(=O)O)C(=O)N[C@H](C(=O)NCC(=O)N[C@@H](CO)C(=O)N[C@@H](CC(N)=O)C(=O)N[C@H](C(=O)N1C[C@H](O)C[C@H]1C(N)=O)[C@@H](C)O)C(C)C)[C@@H](C)O)N(C)C(=O)[C@H](C)NC(=O)CN(C)C(=O)[C@H](Cc1ccccc1)NC(=O)[C@H](CO)NC(=O)[C@H](CO)NC(=O)[C@H](CCCNC(=N)N)NC(=O)[C@H](CCC(N)=O)NC(=O)[C@H](CC(C)C)NC(=O)[C@H](Cc1ccccc1)NC(=O)[C@H](Cc1c[nH]cn1)NC(=O)[C@H](C)NC(=O)[C@H](CC(C)C)NC(=O)[C@H](CCCNC(=N)N)NC(=O)[C@H](CCC(=O)O)NC(=O)[C@@H](NC(=O)[C@H](C)NC(=O)[C@@H]1CNC(=O)CCC[C@H](NC(=O)[C@H](CCCNC(=N)N)NC(=O)CC[C@H](NC(=O)CCCCCCCCCCCCCCCCCCC(=O)O)C(=O)O)C(=O)NCC(=O)N[C@@H]([C@@H](C)O)C(=O)N[C@@H](C)C(=O)N[C@@H]([C@@H](C)O)C(=O)N1)[C@@H](C)O [Compound 50, [19CD]-isoGlu-R-Aad()-GTAT-Dap()-ATERLAHFLQRSSF-Gly(Me)-A-Ile(Me)-LSSTEVGSNT-Hyp-NH2] ({C20 diacid-γGlu}-R[Aad]GTAT[Dap]ATERLAHFLQRSSF[Sar]A[NMeI]LSSTEVGSNT[Hyp]-NH2; lactam 2-7)
6 | 20.3 | 17.1 | CC[C@H](C)[C@@H](C(=O)N1CCC[C@H]1C(=O)N[C@@H](CO)C(=O)N[C@@H](CO)C(=O)N[C@H](C(=O)N[C@@H](CCC(=O)O)C(=O)N[C@H](C(=O)NCC(=O)N[C@@H](CO)C(=O)N[C@@H](CC(N)=O)C(=O)N[C@H](C(=O)N1C[C@H](O)C[C@H]1C(N)=O)[C@@H](C)O)C(C)C)[C@@H](C)O)N(C)C(=O)[C@H](C)NC(=O)CN(C)C(=O)[C@H](Cc1ccccc1)NC(=O)[C@H](CO)NC(=O)[C@H](CO)NC(=O)[C@H](CCCNC(=N)N)NC(=O)[C@H](CCC(N)=O)NC(=O)[C@H](CC(C)C)NC(=O)[C@H](Cc1ccccc1)NC(=O)[C@H](Cc1c[nH]cn1)NC(=O)[C@H](C)NC(=O)[C@H](CC(C)C)NC(=O)[C@H](CCCNC(=N)N)NC(=O)[C@H](CCC(=O)O)NC(=O)[C@@H](NC(=O)[C@H](C)NC(=O)[C@H](CCCN)NC(=O)[C@@H](NC(=O)[C@H](C)NC(=O)[C@@H](NC(=O)CNC(=O)[C@H](CC(=O)O)NC(=O)[C@H](CCCNC(=N)N)NC(=O)CC[C@H](NC(=O)CCCCCCCCCCCCCCCCCCC(=O)O)C(=O)O)[C@@H](C)O)[C@@H](C)O)[C@@H](C)O [Ref. 1, [19CD]-isoGlu-RDGTAT-Orn-ATERLAHFLQRSSF-Sar-A-Ile(Me)-PSSTEVGSNT-Hyp-NH2, reference compound] ({C20 diacid-γGlu}-RDGTAT[Orn]ATERLAHFLQRSSF[Sar]A[NMeI]PSSTEVGSNT[Hyp]-NH2)
